Patent publication US20040018253A1, “Use of CYP2D6 inhibitors in combination therapies” (priority 1999, published 2004)
Read-outs that look alike come from different tables or passages of the source. One block for each compound: values may come before it.

How the values were obtained:
[1] = tested on: CYP; conditions: cited from earlier work
[2] = increasing dose; not observed in poor metabolizers; cited from earlier work
[3] = target: T1, CYP2D6 (Homo sapiens, UniProt P10635); experiment: CYP2D6 catalyzed metabolism, Michaelis-Menten KM
[4] = Human pharmacokinetics of CYP2D6 substrates (half-life, oral bioavailability, hepatic extraction)
[5] = after oral administration of imipramine; extensive metabolizers; cited from earlier work
[6] = in vivo
[7] = target: T1, CYP2D6
[8] = target: T1, CYP2D6; conditions: in vivo, via inhibition of CYP2D6; cited from earlier work

T1 sequence (P10635 whole entry): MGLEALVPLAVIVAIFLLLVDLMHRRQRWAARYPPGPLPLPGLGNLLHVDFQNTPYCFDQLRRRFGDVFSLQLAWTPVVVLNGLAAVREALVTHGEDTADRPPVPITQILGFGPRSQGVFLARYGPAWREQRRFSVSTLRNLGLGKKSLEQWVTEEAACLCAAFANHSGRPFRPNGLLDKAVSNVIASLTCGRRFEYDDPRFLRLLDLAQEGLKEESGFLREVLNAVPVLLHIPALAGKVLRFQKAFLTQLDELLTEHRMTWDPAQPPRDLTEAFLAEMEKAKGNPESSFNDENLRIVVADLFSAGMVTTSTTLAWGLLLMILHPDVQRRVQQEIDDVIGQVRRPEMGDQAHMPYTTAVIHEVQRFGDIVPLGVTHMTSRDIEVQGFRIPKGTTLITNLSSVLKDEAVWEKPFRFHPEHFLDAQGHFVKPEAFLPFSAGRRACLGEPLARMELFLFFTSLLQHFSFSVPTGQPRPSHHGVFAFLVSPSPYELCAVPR

Compound: O=c1c(-c2c(O)cc(O)c3c(=O)cc(-c4ccc(O)cc4)oc23)c(-c2ccc(O)cc2)oc2cc(O)cc(O)c12 [I3, II8-biapigenin]
CYP inhibitory activity [1]: exhibit CYP inhibitory activity

Compound: Fc1ccc([C@@H]2CCNC[C@H]2COc2ccc3c(c2)OCO3)cc1 [paroxetine]
dose-exposure relationship [2]: supraproportional

Compound: O=C1CCC(=O)N1C[C@H]1CC[C@H]2CN(c3ncccn3)CCN2C1 [sunipetron, (7S,9S)-2-(2-pyrimidyl)-7-(succinamidomethyl)-prehydro-1H-pyrido-[1,2-a]pyrazine]
Km ([3]; CYP2D6 substrate): ~1 µM
human oral bioavailability ([4]; oral): 4.6%

Compound: CN(C)CCCN1c2ccccc2CCc2ccccc21 [imipramine]
range of steady state plasma concentrations [5]: 20 fold

human half-life ([6]; human): about 4.7 hours
human oral bioavailability ([6]; human, po): 1.0%
hepatic extraction ([6]; iv): exceeds 90%
Km [7]: ~1 µM
Compound: COc1ccccc1CN[C@H]1CCCN[C@H]1c1ccccc1 [(2S,3S)-2-phenyl-3-(2-methoxyphenyl)-methylaminopiperidine]

Compound: O=c1c(O)c(-c2ccc(O)c(O)c2)oc2cc(O)cc(O)c12 [quercetin]
CYP inhibitory activity [1]: exhibit CYP inhibitory activity

Compound: C=C[C@H]1C[N@@]2CC[C@H]1C[C@@H]2[C@@H](O)c1ccnc2ccc(OC)cc12 [quinidine]
effect on metabolizer phenotype [8]: converting an extensive metabolizer to the poor metabolizer phenotype

Compound: CNCCCN1c2ccccc2CCc2ccccc21 [desipramine]
range of steady state plasma concentrations [5]: 20 fold

Compound: Cc1cc(O)c2c(=O)c3c(O)cc(O)c4c5c(O)cc(O)c6c(=O)c7c(O)cc(C)c8c1c2c(c34)c(c78)c65 [hypericin]
CYP inhibitory activity [1]: exhibit CYP inhibitory activity

Km ([3]; human): 3 to 4 µM
half-life ([4]; in vivo): 3 to 4 h
Compound: C[C@@H]([C@@H](O)c1ccc(O)cc1)N1CCC(O)(c2ccccc2)CC1 [(1S,2S)-1-(4-hydroxyphenyl)-2-(4-hydroxy-4-phenylpiperidin-1-yl)-1-propanol]
